“Also recorded” adds a separate entry of the source.
Tests used:
rat P2X7 receptor = biological target: T1, rat P2X7 receptor (Rattus norvegicus, UniProt Q64663); experiment: MTT cell viability assay in HEK 293 cells stably expressing rat P2X7 (ATP-mediated, P2X7-dependent cell death); format: cell-based; settings: HEK 293 P2X7 (rat) cells
T1 construct: expressed in transfected cells; host or cells: HEK 293
T1 sequence (Q64663 1-595): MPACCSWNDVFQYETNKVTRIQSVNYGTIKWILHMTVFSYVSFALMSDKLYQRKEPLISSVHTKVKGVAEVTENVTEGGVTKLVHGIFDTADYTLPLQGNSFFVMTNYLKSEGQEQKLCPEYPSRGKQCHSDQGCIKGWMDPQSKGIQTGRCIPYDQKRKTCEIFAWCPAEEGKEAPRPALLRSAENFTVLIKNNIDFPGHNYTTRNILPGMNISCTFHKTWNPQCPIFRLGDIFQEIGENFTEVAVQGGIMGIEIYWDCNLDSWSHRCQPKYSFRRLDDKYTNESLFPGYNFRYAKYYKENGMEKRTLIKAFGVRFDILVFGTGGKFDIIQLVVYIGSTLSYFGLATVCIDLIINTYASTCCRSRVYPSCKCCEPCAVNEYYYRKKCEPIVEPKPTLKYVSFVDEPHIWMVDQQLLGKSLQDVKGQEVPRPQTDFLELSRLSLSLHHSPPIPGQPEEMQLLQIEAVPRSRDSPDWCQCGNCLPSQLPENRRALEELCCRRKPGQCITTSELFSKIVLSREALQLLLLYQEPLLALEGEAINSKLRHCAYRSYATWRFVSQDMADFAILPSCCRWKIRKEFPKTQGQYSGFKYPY
Method: HEK 293 cells were stably transfected to express rat P2X7 receptor, using standard tissue culture techniques (Surprenant et al, 1996). The cell line was known to not express any of the other P2X receptors (Schachter et al, 1997). Stable expression of P2X7 was confirmed by Western blot (results not shown).
(§1) Parent (HEK 293) cells, and HEK 293 cells expressing rat P2X7 (HEK 293 P2X7 (rat) cells) were treated with ATP (Sigma, A9062) to determine the effects of ATP on the viability of the cells. Cell viability was determined using an MTT assay (Wen, 2003). Cells were treated with between 0 and 2 μM of ATP. MTT was added to the cell cultures 180 minutes after ATP treatment. The MTT assay was performed 60 minutes after the addition of MTT. Cell viability was directly correlatable to the absorbance of 550 nm light by the cell culture, with a higher absorbance meaning higher cell viability. The cell culture media was removed and the cells were solubilized using DMSO. The absorbance of the solubilized cells was read.
(§2) HEK 293 and HEK 293 P2X7 (rat) cells were treated with 0 to 50 μM of P5P, a vitamin B6 related compound, in sodium salt form (Chemistry Department, CanAm Bioresearch Inc.). Thirty minutes later, cells were treated with 0.4 μM ATP, to determine the effects of ATP on the viability of the MC-1 treated cells. Control cells received sham treatment of P5P, and sham treatment of ATP.
Cell viability was determined using an MTT assay. MTT was added to the cell cultures 180 minutes after ATP treatment. The MTT assay was performed 60 minutes after the addition of MTT. Cell viability was directly correlatable to the absorbance of 550 nm light by the cell culture, with a higher absorbance meaning higher cell viability.

HEK 293 cells = experiment: MTT cell viability assay in parent HEK 293 cells; format: cell-based
Method: as §1, §2
Cell viability was determined using an MTT assay. MTT was added to the cell cultures 180 minutes after ATP treatment. […] Cell viability was directly correlatable to the absorbance of 550 nm light by the cell culture, with a higher absorbance meaning higher cell viability.

[1] = system: IL-1β processing and release from PMA/LPS stimulated THP-1 cells; experiment: ATP-induced processing and release of IL-1β from PMA/LPS stimulated THP-1 cells (human IL-1β ELISA); format: cell-based; settings: 5 mM ATP for one hour; for effect on ATP-induced processing and release of IL-1β: test compound 0.5-150 μM, 30 min pretreatment, IL-1β in media by ELISA
Method: THP-1 non-adherent, monocytic cells (ATCC) were pre-treated with phorbol-12-myristate-13-acetate (PMA), which differentiated the cells into macrophage-like cells. Briefly, approximately 8×10^6 THP-1 cells were harvested, pelleted, resuspended in media to which PMA was added at a final concentration of 0.5 μM. The cells were incubated for 3 hours, then collected, washed, and plated.
The next day, the cells were treated with lipopolysaccharide (LPS) to stimulate IL-1β production. Briefly, the media was removed and replaced with RPI media+10% fetal calf serum containing 100 ng/ml of LPS. Cells were incubated for an additional 24 hours.
Cells were pretreated for 30 minutes, then the media was replaced with media containing 5 mM ATP as well as the test compound. Cells were exposed to ATP for one hour. Media was then collected and the amount of IL-1β in the media was determined using a human IL-1β ELISA (R&D Systems).
Results were expressed as the mean±sem. Statistical analysis was performed using […] (Medistats). […] IL-1β levels were measured in the cell culture media by ELISA and the results are expressed as a percent of the untreated (baseline) controls.

IL-1β = experiment: Cytokine response of lipopolysaccharide treated rats (plasma IL-1β); format: in vivo, Sprague-Dawley rats; settings: blood at 240 min, example in present tense
Method: Sprague-Dawley rats weighing approximately 300 g are treated with 1, 3, or 10 mg/kg P5P (or a saline control). Thirty minutes later (t=30), the animals are given a 50 μg/kg intraperitoneal injection of LPS (or a saline control). Temperature of the animals is measured, and a blood sample is collected at 240 minutes post-treatment (t=240).
Blood samples are transferred to heparinized tubes and plasma is separated by centrifugation. Plasma is assayed for IL-1β, [IL-6 and TNF-α].

P2X7 receptors = biological target: T2, P2X7 receptors (Rattus norvegicus, UniProt Q64663); experiment: BzATP-mediated, P2X7-dependent cell death (Examples 1-2 repeated with BzATP); format: cell-based; settings: BzATP substituted for ATP; example in present tense
T2 construct: expressed in transfected cells; host or cells: HEK 293
T2 sequence (Q64663 1-595): T1 sequence (Q64663 1-595)
Text: Examples 1-2 are repeated, substituting BzATP for ATP. BzATP is known to be a specific agonist of P2X7 receptors. This Example yields results consistent with Examples 1-4, further establishing that the pathway utilized is a P2X7 dependent pathway.

Compound: Nc1ncnc2c1ncn2[C@@H]1O[C@H](COP(=O)(O)OP(=O)(O)OP(=O)(O)O)[C@@H](O)[C@H]1O [ATP, adenosine triphosphate]
- ATP concentration from which significant loss in cell viability starts (MTT) (rat P2X7 receptor; 0 to 2 μM ATP tested): ≥ 0.4 µM
- cell viability (MTT, absorbance at 550 nm) (HEK 293 cells; parent HEK 293 cells, up to 2 μM ATP, MTT added 180 min after ATP): did not significantly affect
- processing and release of IL-1β into the culture media ([1]; PMA/LPS primed THP-1 cells, versus untreated baseline): significant increase

Compound: Cc1ncc(COP(=O)(O)O)c(C=O)c1O [P5P, pyridoxal-5′-phosphate]
- cell viability (MTT) of ATP treated cells after P5P pretreatment (rat P2X7 receptor; 50 μM P5P half an hour before 0.4 μM ATP): significantly improved
- viability of P5P pretreated, ATP treated cells compared with control cells (rat P2X7 receptor; 50 μM P5P, 0.4 μM ATP, control = sham P5P and sham ATP): no significant difference
- cell viability (MTT) of ATP treated cells after P5P pretreatment (rat P2X7 receptor; 1.5 to 15 μM P5P 30 min before 0.4 μM ATP): did not significantly affect
- processing and release of IL-1β in vivo (plasma) (IL-1β; rats, 1, 3 or 10 mg/kg P5P 30 min before 50 μg/kg i.p. LPS): significantly inhibits
- cell viability (MTT) after P5P pretreatment and ATP (HEK 293 cells; HEK 293 cells, 0 to 50 μM P5P 30 min before 0.4 μM ATP): did not have any significant effect
- effect on ATP-induced processing and release of IL-1β [1]: uniquely effective; also recorded: significantly inhibited
- protection from BzATP-mediated, P2X7-dependent cell death (P2X7 receptors): Protects Cells

Compound: Cc1ncc(CO)c(C=O)c1O [pyridoxal]
- effect on ATP-induced processing and release of IL-1β [1]: not effective; also recorded: no significant effect

Compound: Cc1ncc(CO)c(CN)c1O [pyridoxamine]
- effect on ATP-induced processing and release of IL-1β [1]: not effective; also recorded: no significant effect

Compound: Cc1ncc(CO)c(CO)c1O [pyridoxine]
- effect on ATP-induced processing and release of IL-1β [1]: not effective; also recorded: no significant effect

Compound: lipopolysaccharide [LPS]
- processing and release of IL-1β [IL-6 and TNF-α] into the plasma (IL-1β; rats, 50 μg/kg intraperitoneal LPS): significant increase

Compound: pyridoxamine phosphate
- effect on ATP-induced processing and release of IL-1β [1]: not effective; also recorded: no significant effect

From US20090215727A1, “INHIBITION OF ATP-MEDIATED, P2X7 DEPENDENT PATHWAYS BY PYRIDOXAL-5-PHOSPHATE AND VITAMIN B6 RELATED COMPOUNDS” (MEDICURE INTERNATIONAL INC., priority 2005, published 2009)
